Test results from article PMC10191356, “Target-agnostic drug prediction integrated with medical record analysis uncovers differential associations of statins with increased survival in COVID-19 patients” (PLOS Computational Biology, 2023).

Columns and labels:
COVID-19 patients = experiment: Retrospective electronic health record analysis of mortality (Cerner Real World Data COVID-19), propensity score matched; assay type: in vivo, human; conditions: for Mortality, N (%): cohort before propensity score matching, moderate-intensity statin dose; for Mortality rate, treated patients / No. died/No. treated, treated patients: statin at moderate dose, COVID-19 patients; for reduction in the RR: treated vs matched untreated controls
Procedure: Data from the Cerner Real World Data COVID-19 deidentified EHR database containing records of 490,373 patients with a diagnosis of COVID-19 or COVID-19 exposure across 87 health care centers were analyzed. The following statins were included: atorvastatin, fluvastatin, lovastatin, pitavastatin, pravastatin, rosuvastatin, and simvastatin. Primary outcome was death after the onset of COVID-19. Inclusion criteria, considered comorbidities, and statistical analysis are detailed in the Methods in S1 Text.
Encounters include laboratory and pharmacy information (e.g., medication orders, dispensing), which are date and time stamped. Only patients with COVID-19 diagnosis confirmed by a laboratory test for SARS-CoV-2 (nucleic acid amplification tests and immunoassays) and/or by International Statistical Classification of Diseases and Related Health Problems, Tenth Revision (ICD-10) code U07.1 (for COVID-19 confirmed by laboratory testing),^1 with known demographic characteristics (age, sex, and race and ethnicity), and who were 18 years or older from January to September 2020 were included in our study (n = 90,834). Patients with COVID-19, with a statin medication dose consistent with moderate-intensity therapy,^2 and with a medication order status of active or completed and without a designation of as needed (ie, medication taken only when needed) at least once within a period of 10 days before and 7 days after their first recorded COVID-19 diagnosis were compared with patients with COVID-19 and no statin orders.
Considered comorbidities, identified by using International Classification of Diseases, Ninth Revision, Clinical Modification (ICD-9-CM), and International Statistical Classification of Diseases, Tenth Revision, Clinical Modification (ICD-10-CM), diagnosis codes, included hypertension (I10-I16 and 401.X-405.X), diabetes (O24, E11, E10, E13, and 250.X), chronic obstructive pulmonary disease (J44, 491.2, 493.2, and 496.X), obesity (E66.0, E66.1, E66.2, E66.8, E66.9, 278.00, 278.01, 278.03, Z68.3, Z68.4, V85.3, and V85.4), heart conditions (I20.X, I21.X, I22.X, I23.X, I24.X, I25.X, I42.X, I50.X, 410.X, 411.X, 412.X, 413.X, 414.X, 428.X, and 425.X), cerebrovascular disease (I6X.X, G45.X, G46.X, and 43X.X), cancer (C00-C96, 14X.X, 15X.X, 16X.X, 17X.X, 18X.X, 19X.X, and 20X.X), and chronic kidney disease (N18.X and 585.X). Prescription indications, identified by using ICD-9-CM and ICD-10-CM codes, included high cholesterol/hyperlipidemia (E78.0, E78.1, E78.2, E78.3, E78.4, E78.5, 272, 277). Body mass index (calculated as weight in kilograms divided by height in meters squared) values were identified by Logical Observation Identifiers Names and Codes 39156-5 and 89270-3. Body mass index values of at least 30 were used to confirm the diagnosis of obesity by ICD-9-CM or ICD-10-CM code. The mean dose prescribed for statins-treated patients was calculated for each statin. […] For patients receiving pravastatin, the mean (SD) dose was 48.25 (16.21) mg/d.
The R Matchit package, version 3.0.2 (R Program for Statistical Computing) was used to perform propensity score matching with a nearest-neighbor method to match patients treated with a statin with control patients (1:1 ratio), atorvastatin-treated patients with control patients (1:1 ratio), lovastatin-treated patients with control patients (1:10 ratio), pravastatin-treated patients with control patients (1:10 ratio), rosuvastatin-treated patients with control patients (1:10 ratio), and simvastatin-treated patients with control patients (1:5 ratio), with varying ratios for the different statins to have sufficient power for the comparisons and increase precision. […]

SARS-CoV-2 (WA-1 strain) = experiment: SARS-CoV-2 WT infection of Vero6 cells (CellTiter-Glo); assay type: cell-based; conditions: MOI 0.01, 3 days, mean of two independent experiments; for IC50: Severe acute respiratory syndrome coronavirus 2, 72 h, relative IC50, WT virus; for Max Inhibition (%): WT virus
SARS-CoV-2 [1] = system: SARS-CoV-2; set-up: method as in earlier work; conditions: VeroE6 cells; cited from earlier work
[2] = cited from earlier work
[3] = cited from earlier work; remark: listed apart in the source
SARS-CoV-2 GFP = experiment: microbe, parasite or virus in culture; assay type: cell-based; conditions: for IC50: Severe acute respiratory syndrome coronavirus 2, 48 h, relative IC50; for IC50 / Max Inhibition (%): mean of two independent experiments
Vero E6 (Vero6) cells = conditions: uninfected Vero6 cells; mean of two independent experiments
in vitro = conditions: African green monkey
[4] = cited from earlier work; remark: listed apart in the source
HCoV-OC43 = HCoV-OC43 infection of HUVECs, viral load; assay type: cell-based, human coronavirus OC43; conditions: HUVEC cells, 1 or 5 μM
Procedure: (§1) To measure the impact of selected drugs on HCoV-OC43 infection, 96-well plates seeded with human umbilical vein endothelial cells (HUVECs) were infected with HCoV-OC43 and treated with drugs (Methods in S1 Text). Viral load, Hoechst fluorescence, and IP-10 measurements were measured and normalized to vehicle control samples for each assay. Each group was compared to vehicle controls using the Brown-Forsythe and Welch ANOVA tests and corrected for multiple comparisons using a Dunnett T3 test.
(§2) To measure the impact of selected drugs on HCoV-OC43 infection, 96-well plates seeded with Human Umbilical Vein Endothelial Cells (HUVEC) were infected with HCoV-OC43 and treated with drugs. Uninfected and vehicle treated cells (0.1% DMSO) are included as controls. HUVEC plates were pre-dosed with drugs overnight at 34°C at indicated concentrations (100 µl/well). The following day, HCoV-OC43 was added to the wells (100 µl/well) at an MOI of 0.2 and incubated for 3 h at 34°C. […] After five PBS washes, Hoechst fluorescence was read at 355 nm excitation and 450 nm emission using a Synergy H1 Spectrophotometer. Subsequently, viral load was analyzed using the ImmPACT DAB Peroxidase (HRP) Substrate kit (Vector Labs) according to the manufacturer’s instructions, and DAB absorbance was read at 465 nm.

IP-10 = IP-10 production in OC43-infected HUVECs; assay type: cell-based, human; conditions: 1 or 5 μM
Procedure: as §1, §2

SARS-CoV-2 [5] = experiment: Preliminary in vivo study in SARS-CoV-2-infected hamsters
SARS-CoV-2 [6] = experiment: Preliminary in vivo study in SARS-CoV-2-infected mice

Structure (SMILES)	Mortality, N (%) (COVID-19 patients)	Mortality rate, treated patients (COVID-19 patients) [%]	No. died/No. treated, treated patients (COVID-19 patients)	reduction in the RR (COVID-19 patients) [%]	Solubility [2]	Active metabolites [3]	Clearance [3]	Metabolism [3]	Max Inhibition (%) (SARS-CoV-2 GFP)	Max Toxicity (%) (Vero E6 (Vero6) cells)	CC50 (in vitro) [µM]	Elimination half-life [3] [h]	Protein binding (%) [4] [%]	Bioavailability (%) [3] [%]	other results
CC(C)c1c(C(=O)Nc2ccccc2)c(-c2ccccc2)c(-c2ccc(F)cc2)n1CC[C@@H](O)C[C@@H](O)CC(=O)O [atorvastatin]	431 (16.1) %	16.1	431/2676	14	–	–	–	–	–	–	–	–	–	–	IC50 (SARS-CoV-2 (WA-1 strain)): 1.9 µM; Max Inhibition (%) (SARS-CoV-2 (WA-1 strain)): 24.4%
CC(C)c1nc(N(C)S(C)(=O)=O)nc(-c2ccc(F)cc2)c1/C=C/[C@@H](O)C[C@@H](O)CC(=O)O [rosuvastatin]	53 (13.1) %	13.1	53/404	41	Hydrophilic	No	Hepatic and renal	Non-CYP450 Limited CYP2C9/8	–	–	–	–	–	–	effects on SARS-CoV-2 replication (SARS-CoV-2 [1]): inhibitory effects
CCC(C)(C)C(=O)O[C@H]1C[C@@H](C)C=C2C=C[C@H](C)[C@H](CC[C@@H](O)C[C@@H](O)CC(=O)O)[C@H]21 [simvastatin hydroxy acid]	–	–	–	–	–	–	–	–	–	–	–	–	–	–	inhibition of SARS-CoV-2 infection relative to pro-drug form of simvastatin (SARS-CoV-2 GFP): much weaker inhibition
CC[C@H](C)C(=O)O[C@H]1C[C@@H](C)C=C2C=C[C@H](C)[C@H](CC[C@@H]3C[C@@H](O)CC(=O)O3)[C@H]21 [lovastatin]	15 (21.4) %	21.4	15/70	–	Lipophilic	Yes	Hepatic	CYP3A4	55.8	74.2	16.9	2.9	>95	–	IC50 (SARS-CoV-2 GFP): 7.8 µM
O=C(O)C[C@H](O)C[C@H](O)/C=C/c1c(C2CC2)nc2ccccc2c1-c1ccc(F)cc1 [pitavastatin]	4 (30.8) %	–	–	–	Lipophilic	Yes	Hepatic	Non-CYP450 Limited CYP2C9/19	–	83.6	0.3	12	99	51	IC50 (SARS-CoV-2 (WA-1 strain)): 1.6 µM; Max Inhibition (%) (SARS-CoV-2 (WA-1 strain)): 19.1%
CCC(C)(C)C(=O)O[C@H]1C[C@@H](C)C=C2C=C[C@H](C)[C@H](CC[C@@H]3C[C@@H](O)CC(=O)O3)[C@H]21 [simvastatin]	153 (19.5) %	19.5	153/784	17	–	–	Hepatic	–	93.7	78.5	6.5	2 to 3	94 to 98	–	IC50 (SARS-CoV-2 GFP): 0.8 µM; OC43 infection (viral load) (HCoV-OC43): inhibits; cytokine (IP-10) production (IP-10): potently reduced; effect on infection and host response (SARS-CoV-2 [5]; SARS-CoV-2-infected hamsters, very preliminary): no effect; plasma levels (SARS-CoV-2 [5]; hamsters, compared with in vitro IC50): greater than the IC50; effect on infection and host response (SARS-CoV-2 [6]; SARS-CoV-2-infected mice, very preliminary): no effect; plasma levels (SARS-CoV-2 [6]; mice, compared with in vitro IC50): greater than the IC50
CC[C@H](C)C(=O)O[C@H]1C[C@H](O)C=C2C=C[C@H](C)[C@H](CC[C@@H](O)C[C@@H](O)CC(=O)O)[C@H]21 [pravastatin]	71 (18.5) %	18.5	71/383	–	Hydrophilic	No	Hepatic and renal	Non-CYP450	21.7	4	–	1.3 to 2.8	43 to 55	18	Relative risk of death (95% CI) (COVID-19 patients; treated vs propensity score matched untreated controls, iteration with the least significant result): 0.78 (0.61–1.00)
CC(C)n1c(/C=C/C(O)CC(O)CC(=O)O)c(-c2ccc(F)cc2)c2ccccc21 (centres unmarked) [fluvastatin]	–	–	–	–	Lipophilic	No	–	CYP2C9	19	80.4	10.6	0.5 to 2.3	>99	19 to 29	–
